Measurements: patent publication US20180133331A1, “Site-Specific DNA-Doxorubicin Conjugates Display Enhanced Cytotoxicity to Breast Cancer Cells” (priority 2014, published 2018)

System: Salmon Sperm DNA
Assay: Dox transfer from DCH to salmon sperm DNA (fluorescence quenching, stability of Dox:hairpin conjugate)
Format: physicochemical
Conditions: 100-fold excess spDNA (w/w), 37° C.
Procedure: Dox transfer from DCH: Samples of 2.5 μM (approximately 2 μg in 100 uL) DCH, doxorubicin, or hairpin+doxorubicin were prepared in DPBS with or without a 100-fold by weight (200 μg) excess of Salmon Sperm DNA and incubated at 37° C. Fluorescence intensity was determined by Typhoon-9210 variable mode imager with excitation set to 532 nm and the emission filter at 610 nm.
Stability of Dox:Hairpin Conjugate. It was hypothesized that covalent binding of Dox would allow for the Dox-conjugated hairpin to serve as a delivery vehicle with improved pharmacological properties and reduced systemic toxicities relative to conventional Dox. In order for the hairpin to act as an efficient delivery vehicle, Dox must remain stably bound under physiological conditions, but also undergo intracellular release and transfer to genomic DNA. […] Using the difference in fluorescence between hairpin-bound Dox and Dox intercalated into DNA, the half-life of the Dox-hairpin bond was measured. An assay was developed to quantify the transfer of Dox from the hairpin to genomic DNA under physiologic conditions. This assay is based on the difference in fluorescence of Dox in the context of the hairpin conjugate relative to genomic DNA. […] Reactions were incubated at 37° C. with fluorescence quenching measured over 48 h. […]

COc1cccc2c1C(=O)c1c(O)c3c(c(O)c1C2=O)C[C@@](O)(C(=O)CO)C[C@@H]3O[C@H]1C[C@H](N)[C@H](O)[C@H](C)O1 [Dox, Doxorubicin]
fluorescence quenching following addition of spDNA: fully quenched within one hour
